Experiments:
RUMGNA_01526 = RUMGNA_01526 (Mediterraneibacter gnavus, UniProt A7B1V0); assay: X-ray crystal structure at […] Å; assay type: biochemical; details: read-out: Ki
CLOSPO_02083 = biological target: T1, CLOSPO_02083 (Clostridium sporogenes, UniProt J7SZ64); assay: progress curves of tryptamine production by HPLC, kobs vs [I]; assay type: biochemical; details: read-out: Ki
T1 sequence (J7SZ64 1-417): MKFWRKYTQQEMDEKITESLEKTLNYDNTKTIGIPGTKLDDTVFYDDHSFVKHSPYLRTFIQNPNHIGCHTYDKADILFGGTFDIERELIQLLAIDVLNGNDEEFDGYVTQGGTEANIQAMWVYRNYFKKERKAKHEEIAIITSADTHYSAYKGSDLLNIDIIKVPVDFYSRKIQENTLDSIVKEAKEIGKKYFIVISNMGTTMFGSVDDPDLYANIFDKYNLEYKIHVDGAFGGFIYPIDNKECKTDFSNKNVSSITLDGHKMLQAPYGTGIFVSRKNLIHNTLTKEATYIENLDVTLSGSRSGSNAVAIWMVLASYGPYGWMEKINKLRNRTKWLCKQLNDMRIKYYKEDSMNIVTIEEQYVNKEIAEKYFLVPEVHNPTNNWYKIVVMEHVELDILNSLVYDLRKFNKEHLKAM

NC(CF)(Cc1c[nH]c2ccccc12)C(=O)O (stereo in doubt) [I, (S)-α-FMT]
KI (inactivation) (RUMGNA_01526): 178 µM
KI (inactivation) (CLOSPO_02083): 0.2 µM
